# Test results reported in US20230045629A1, “TREATMENT OF PROGRESSIVE SUPRANUCLEAR PALSY” (NATIONAL UNIVERSITY CORPORATION TOKAI NATIONAL HIGHER …, priority 2020, published 2023).
# Tested on: AT8-positive phosphorylated tau
# Assay: Actin polymerization inhibitor on phosphorylated tau in primary cortical neurons from fetal mouse brain electroporated in utero with FLNA, fluorescent immunostaining
# Type: cell-based
# Conditions: wild-type FLNA introduced at E14, primary cortical neurons collected at E15, 2 DIV; compared with 0.1% DMSO (control)
# From the text: FIG. 17-2: Continued from FIG. 17. (b): Each plasmid was introduced into a fetal mouse brain in a mouse at 14 days of gestation (E14) by in utero electroporation, and primary cortical neurons were collected at 15 days of gestation (E15), followed by 2-day cell culture (2 DIV) and then fluorescent immunostaining. At the time of administration of 0.1% DMSO (control), the expression level of AT8-positive phosphorylated tau was increased because of wild-type FLNA (FLNA^WT) but not at the time of administration of an actin polymerization inhibitor cytochalasin D (CytoD). The multiple asterisks “***” indicate a Tukey's test P value of less than 0.001.
# The FLNA gene was induced into the brain of a fetal mouse in a mouse at 14 days of gestation (E14).
compound,measurement,value
C=C1[C@@H](C)[C@H]2[C@H](Cc3ccccc3)NC(=O)[C@]23[C@H](OC(C)=O)/C=C/[C@@](C)(O)C(=O)[C@@H](C)C/C=C/[C@H]3[C@@H]1O [cytochalasin D (CytoD)],expression level of AT8-positive phosphorylated tau,did not cause an increase
